From patent US10894784B2, “Heteroarylbenzimidazole compounds” (BAYER PHARMA AKTIENGESELLSCHAFT, priority 2015, dated 2021)

Target: TBK1 (Homo sapiens (Human), UniProt Q9UHD2)
Assay: TBK1 low ATP kinase assay (in vitro assay 1)
Format: biochemical
Settings: TBK1 low ATP kinase assay IC50, in vitro assay 1

TBK1, sequence (Q9UHD2 whole entry): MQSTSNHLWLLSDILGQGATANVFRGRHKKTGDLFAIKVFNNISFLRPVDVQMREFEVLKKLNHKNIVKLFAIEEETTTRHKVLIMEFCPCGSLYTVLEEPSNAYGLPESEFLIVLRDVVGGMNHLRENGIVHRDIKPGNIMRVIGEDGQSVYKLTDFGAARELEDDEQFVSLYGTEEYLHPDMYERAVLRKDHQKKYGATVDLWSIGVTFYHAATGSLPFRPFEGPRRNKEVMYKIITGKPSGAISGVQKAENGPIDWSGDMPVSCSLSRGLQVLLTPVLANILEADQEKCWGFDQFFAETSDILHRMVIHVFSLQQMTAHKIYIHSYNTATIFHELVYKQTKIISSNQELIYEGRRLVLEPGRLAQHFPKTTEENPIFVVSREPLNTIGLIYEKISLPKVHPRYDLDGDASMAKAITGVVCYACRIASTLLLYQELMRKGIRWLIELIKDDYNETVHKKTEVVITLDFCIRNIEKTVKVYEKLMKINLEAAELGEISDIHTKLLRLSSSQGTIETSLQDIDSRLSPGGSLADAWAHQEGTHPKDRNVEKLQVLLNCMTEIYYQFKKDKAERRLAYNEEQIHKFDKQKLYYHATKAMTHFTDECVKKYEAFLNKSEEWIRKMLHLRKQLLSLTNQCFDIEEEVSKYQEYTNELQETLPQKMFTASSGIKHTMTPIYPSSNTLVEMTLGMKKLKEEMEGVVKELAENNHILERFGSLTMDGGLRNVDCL

IC50 [nM] | SMILES
105 | Cc1noc(-c2ccc3nc(Nc4cc(C(C)N5CCN(C(=O)CC(F)(F)F)CC5)ccn4)[nH]c3c2)n1 (single isomer, unassigned) [Example 16.06.02.A, 3,3,3-trifluoro-1-{4-[(1R or 1S)-1-(2-{[6-(3-methyl-1,2,4-oxadiazol-5-yl)-1H-benzimidazol-2-yl]amino}pyridin-4-yl)ethyl]piperazin-1-yl}propan-1-one]
17.2 | Cc1noc(-c2ccc3nc(Nc4cc(C(C)N5CCN(C(=O)CC(F)(F)F)CC5)ccn4)[nH]c3c2)n1 (single isomer, unassigned) [Example 16.06.02.B, 3,3,3-trifluoro-1-{4-[(1S or 1R)-1-(2-{[6-(3-methyl-1,2,4-oxadiazol-5-yl)-1H-benzimidazol-2-yl]amino}pyridin-4-yl)ethyl]piperazin-1-yl}propan-1-one]

Same assay, conditions: in vitro assay 1, read-out: TBK1 low ATP kinase assay IC50

SMILES | IC50 [nM]
COc1cncnc1-c1ccc2nc(Nc3cc(C(C)N4CCN(C(=O)CC5CC5)CC4)ccn3)[nH]c2c1 (racemic) [Example 35.02.02, (rac)-2-cyclopropyl-1-{4-[1-(2-{[6-(5-methoxypyrimidin-4-yl)-1H-benzimidazol-2-yl]amino}pyridin-4-yl)ethyl]piperazin-1-yl}ethanone] | 11.5
CC(O)c1cc(-c2ccc3nc(Nc4cc(CN5CCN(C(=O)CC(F)(F)F)CC5)ccn4)[nH]c3c2)ncn1 (racemic) [Example 97.02, (rac)-3,3,3-trifluoro-1-[4-({2-[(6-{6-[1-hydroxyethyl]pyrimidin-4-yl}-1H-benzimidazol-2-yl)amino]pyridin-4-yl}methyl)piperazin-1-yl]propan-1-one] | 18
Cc1noc(-c2ccc3nc(Nc4cc(C(C)N5CCN(C(=O)C6CC6(F)F)CC5)ccn4)[nH]c3c2)n1 (single isomer, unassigned) [Example 16.06.05, ((1RS)-2,2-difluorocyclopropyl){4-[(1R or 1S)-1-(2-{[6-(3-methyl-1,2,4-oxadiazol-5-yl)-1H-benzimidazol-2-yl]amino}pyridin-4-yl)ethyl]piperazin-1-yl}methanone] | 18.1
Cc1noc(-c2ccc3nc(Nc4cc(C(C)N5CCN(C(=O)C(C)(C)O)CC5)ccn4)[nH]c3c2)n1 (single isomer, unassigned) [Example 16.06.06, 2-hydroxy-2-methyl-1-{4-[(1R or 1S)-1-(2-{[6-(3-methyl-1,2,4-oxadiazol-5-yl)-1H-benzimidazol-2-yl]amino}pyridin-4-yl)ethyl]piperazin-1-yl}propan-1-one] | 73
CC(c1ccnc(Nc2nc3ccc(-c4ccncn4)cc3[nH]2)c1)N1CCN(C(=O)C2CC2)CC1 (single isomer, unassigned) [Example 23.05.01.B, cyclopropyl{4-[(1S or 1R)-1-(2-{[6-(pyrimidin-4-yl)-1H-benzimidazol-2-yl]amino}pyridin-4-yl)ethyl]piperazin-1-yl}methanone] | 12.4
CC(c1ccnc(Nc2nc3ccc(-c4ccncn4)cc3[nH]2)c1)N1CCN(C(=O)CC(F)(F)F)CC1 (single isomer, unassigned) [Example 23.05.02.A, 3,3,3-trifluoro-1-{4-[(1R or 1S)-1-(2-{[6-(pyrimidin-4-yl)-1H-benzimidazol-2-yl]amino}pyridin-4-yl)ethyl]piperazin-1-yl}propan-1-one] | 8.23
CC(c1ccnc(Nc2nc3ccc(-c4ccncn4)cc3[nH]2)c1)N1CCN(C(=O)C2CCC2)CC1 (single isomer, unassigned) [Example 23.05.03.A, cyclobutyl{4-[(1R or 1S)-1-(2-{[6-(pyrimidin-4-yl)-1H-benzimidazol-2-yl]amino}pyridin-4-yl)ethyl]piperazin-1-yl}methanone] | 2.99
Cc1nccc(-c2ccc3nc(Nc4cc(C(C)N5CCN(C(=O)CC(F)(F)F)CC5)ccn4)[nH]c3c2)n1 (single isomer, unassigned) [Example 24.05.01.A, 3,3,3-trifluoro-1-{4-[(1R or 1S)-1-(2-{[6-(2-methylpyrimidin-4-yl)-1H-benzimidazol-2-yl]amino}pyridin-4-yl)ethyl]piperazin-1-yl}propan-1-one] | 45.4
Cc1nccc(-c2ccc3nc(Nc4cc(C(C)N5CCN(C(=O)C6CCC6)CC5)ccn4)[nH]c3c2)n1 (single isomer, unassigned) [Example 24.05.02.B, cyclobutyl{4-[(1S or 1R)-1-(2-{[6-(2-methylpyrimidin-4-yl)-1H-benzimidazol-2-yl]amino}pyridin-4-yl)ethyl]piperazin-1-yl}methanone] | 55.1

Second part, the compound after the results:

IC50 [nM] | SMILES
9.1 | COc1cc(-c2ccc3nc(Nc4cc(C(C)N5CCN(C(=O)C6CC6)CC5)ccn4)[nH]c3c2)ncn1 (racemic) [Example 34.02.02, (rac)-cyclopropyl{4-[1-(2-{[6-(6-methoxypyrimidin-4-yl)-1H-benzimidazol-2-yl]amino}pyridin-4-yl)ethyl]piperazin-1-yl}methanone]
7.67 | COc1cncnc1-c1ccc2nc(Nc3cc(C(C)N4CCN(C(=O)CC(F)(F)F)CC4)ccn3)[nH]c2c1 (racemic) [Example 35.02.01, (rac)-3,3,3-trifluoro-1-{4-[1-(2-{[6-(5-methoxypyrimidin-4-yl)-1H-benzimidazol-2-yl]amino}pyridin-4-yl)ethyl]piperazin-1-yl}propan-1-one]
6.29 | COc1cncnc1-c1ccc2nc(Nc3cc(C(C)N4CCN(C(=O)C5CC5)CC4)ccn3)[nH]c2c1 (racemic) [Example 35.02.03, (rac)-cyclopropyl{4-[1-(2-{[6-(5-methoxypyrimidin-4-yl)-1H-benzimidazol-2-yl]amino}pyridin-4-yl)ethyl]piperazin-1-yl}methanone]
10.4 | COc1cncnc1-c1ccc2nc(Nc3cc(C(C)N4CCN(C(=O)C5CCC5)CC4)ccn3)[nH]c2c1 (racemic) [Example 35.02.04, (rac)-cyclobutyl{4-[1-(2-{[6-(5-methoxypyrimidin-4-yl)-1H-benzimidazol-2-yl]amino}pyridin-4-yl)ethyl]piperazin-1-yl}methanone]
21 | CC(O)c1cc(-c2ccc3nc(Nc4cc(CN5CCN(C(=O)OC(C)(C)C)CC5)ccn4)[nH]c3c2)ncn1 (racemic) [Example 97.01, (rac)-tert-butyl 4-({2-[(6-{6-[1-hydroxyethyl]pyrimidin-4-yl}-1H-benzimidazol-2-yl)amino]pyridin-4-yl}methyl)piperazine-1-carboxylate]
13.8 | Cc1noc(-c2ccc3nc(Nc4cc(C(C)N5CCN(C(=O)C6CC6)CC5)ccn4)[nH]c3c2)n1 (single isomer, unassigned) [Example 16.06.03.A, cyclopropyl{4-[(1R or 1S)-1-(2-{[6-(3-methyl-1,2,4-oxadiazol-5-yl)-1H-benzimidazol-2-yl]amino}pyridin-4-yl)ethyl]piperazin-1-yl}methanone]
21.7 | Cc1noc(-c2ccc3nc(Nc4cc(C(C)N5CCN(C(=O)C6(C(F)(F)F)CC6)CC5)ccn4)[nH]c3c2)n1 (single isomer, unassigned) [Example 16.06.04, {4-[(1R or 1S)-1-(2-{[6-(3-methyl-1,2,4-oxadiazol-5-yl)-1H-benzimidazol-2-yl]amino}pyridin-4-yl)ethyl]piperazin-1-yl}[1-(trifluoromethyl)cyclopropyl]methanone]
2.05 | CC(c1ccnc(Nc2nc3ccc(-c4ccncn4)cc3[nH]2)c1)N1CCN(C(=O)C2CC2)CC1 (single isomer, unassigned) [Example 23.05.01.A, cyclopropyl{4-[(1R or 1S)-1-(2-{[6-(pyrimidin-4-yl)-1H-benzimidazol-2-yl]amino}pyridin-4-yl)ethyl]piperazin-1-yl}methanone]
1.86 | CC(c1ccnc(Nc2nc3ccc(-c4ccncn4)cc3[nH]2)c1)N1CCN(C(=O)CC(F)(F)F)CC1 (single isomer, unassigned) [Example 23.05.02.B, 3,3,3-trifluoro-1-{4-[(1S or 1R)-1-(2-{[6-(pyrimidin-4-yl)-1H-benzimidazol-2-yl]amino}pyridin-4-yl)ethyl]piperazin-1-yl}propan-1-one]
14.5 | CC(c1ccnc(Nc2nc3ccc(-c4ccncn4)cc3[nH]2)c1)N1CCN(C(=O)C2CCC2)CC1 (single isomer, unassigned) [Example 23.05.03.B, cyclobutyl{4-[(1S or 1R)-1-(2-{[6-(pyrimidin-4-yl)-1H-benzimidazol-2-yl]amino}pyridin-4-yl)ethyl]piperazin-1-yl}methanone]
6.62 | Cc1nccc(-c2ccc3nc(Nc4cc(C(C)N5CCN(C(=O)CC(F)(F)F)CC5)ccn4)[nH]c3c2)n1 (single isomer, unassigned) [Example 24.05.01.B, 3,3,3-trifluoro-1-{4-[(1S or 1R)-1-(2-{[6-(2-methylpyrimidin-4-yl)-1H-benzimidazol-2-yl]amino}pyridin-4-yl)ethyl]piperazin-1-yl}propan-1-one]
11 | Cc1nccc(-c2ccc3nc(Nc4cc(C(C)N5CCN(C(=O)C6CCC6)CC5)ccn4)[nH]c3c2)n1 (single isomer, unassigned) [Example 24.05.02.A, cyclobutyl{4-[(1R or 1S)-1-(2-{[6-(2-methylpyrimidin-4-yl)-1H-benzimidazol-2-yl]amino}pyridin-4-yl)ethyl]piperazin-1-yl}methanone]
45.4 | Cc1nccc(-c2ccc3nc(Nc4cc(C(C)N5CCN(C(=O)CC6CC6)CC5)ccn4)[nH]c3c2)n1 (single isomer, unassigned) [Example 24.05.03.A, 2-cyclopropyl-1-{4-[(1R or 1S)-1-(2-{[6-(2-methylpyrimidin-4-yl)-1H-benzimidazol-2-yl]amino}pyridin-4-yl)ethyl]piperazin-1-yl}ethanone]
13.8 | Cc1nccc(-c2ccc3nc(Nc4cc(C(C)N5CCN(C(=O)CC6CC6)CC5)ccn4)[nH]c3c2)n1 (single isomer, unassigned) [Example 24.05.03.B, 2-cyclopropyl-1-{4-[(1S or 1R)-1-(2-{[6-(2-methylpyrimidin-4-yl)-1H-benzimidazol-2-yl]amino}pyridin-4-yl)ethyl]piperazin-1-yl}ethanone]
